Reference: ChEMBL document CHEMBL3885881, “DrugMatrix”

Species on record: Rattus norvegicus
Assay: DrugMatrix - Regimen: Daily Repeat
Type: toxicity, organism-based, Sprague-Dawley
Set-up: regimen Daily Repeat, gender Male, age 6-8 weeks
Conditions: in vivo, po, route oral GAVAGE, vehicle .5 % CMC; for ABSOLUTE BASOPHIL / ABSOLUTE EOSINOPHIL / ABSOLUTE LYMPHOCYTE / ABSOLUTE MONOCYTE / ABSOLUTE SEGMENTED NEUTROPHIL / BASOPHIL / EOSINOPHIL / ERYTHROCYTE COUNT / HEMATOCRIT / HEMOGLOBIN / LEUKOCYTE COUNT / LYMPHOCYTE / MEAN CORPUSCULAR HEMOGLOBIN / MEAN CORPUSCULAR HEMOGLOBIN CONCENTRATION / MEAN CORPUSCULAR VOLUME / MONOCYTE / NEUTROPHIL / NUCLEATED RED BLOOD CELLS / PLATELET COUNT: tissue Blood; for ALANINE AMINOTRANSFERASE / ALBUMIN / ALKALINE PHOSPHATASE / ASPARTATE AMINOTRANSFERASE / BLOOD UREA NITROGEN / CARBON DIOXIDE / CHLORIDE / CHOLESTEROL / CREATINE PHOSPHOKINASE / CREATININE / GLUCOSE / LACTATE DEHYDROGENASE / LIPASE / PHOSPHORUS / POTASSIUM / SODIUM / TOTAL BILIRUBIN / TOTAL PROTEIN / URIC ACID: tissue Plasma
[1] = 0 mg/kg, 72 h, dose level Control, time 3 day
[2] = 0 mg/kg, 120 h, dose level Control, time 5 day
[3] = 150 mg/kg, 72 h, dose level Low, time 3 day

C[C@@H](O)[C@H]1C(=O)N2C(C(=O)O)=C(S[C@@H]3CN[C@H](C(=O)N(C)C)C3)[C@H](C)[C@H]12 [MEROPENEM]
ABSOLUTE BASOPHIL [1]: 0 CELLS/uL | ABSOLUTE EOSINOPHIL [1]: 222.83 CELLS/uL | ABSOLUTE LYMPHOCYTE [1]: 14453 CELLS/uL | ABSOLUTE MONOCYTE [1]: 0 CELLS/uL | ABSOLUTE SEGMENTED NEUTROPHIL [1]: 1490.83 CELLS/uL | BASOPHIL [1]: 0% | EOSINOPHIL [1]: 1.33% | ERYTHROCYTE COUNT [1]: 5.76 x10E6/uL | HEMATOCRIT [1]: 36.52% | HEMOGLOBIN [1]: 13.45 G/DL | LEUKOCYTE COUNT [1]: 16.17 x10E3/uL | LYMPHOCYTE [1]: 89.33% | MEAN CORPUSCULAR HEMOGLOBIN [1]: 23.37 pg | MEAN CORPUSCULAR HEMOGLOBIN CONCENTRATION [1]: 36.85 G/DL | MEAN CORPUSCULAR VOLUME [1]: 63.47 fL | MONOCYTE [1]: 0% | NEUTROPHIL [1]: 9.33% | NUCLEATED RED BLOOD CELLS [1]: 0 /100WBC | PLATELET COUNT [1]: 1239.5 x10E3/uL | ALANINE AMINOTRANSFERASE [1]: 43.83 u/L | ALBUMIN [1]: 4.27 G/DL | ALKALINE PHOSPHATASE [1]: 398.83 u/L | ASPARTATE AMINOTRANSFERASE [1]: 81.17 u/L | BLOOD UREA NITROGEN [1]: 17.67 mg/dL | CARBON DIOXIDE [1]: 27.5 mmol/L | CHLORIDE [1]: 99.17 MEQ/L | CHOLESTEROL [1]: 74 mg/dL | CREATINE PHOSPHOKINASE [1]: 331.5 u/L | CREATININE [1]: 0.2 mg/dL | GLUCOSE [1]: 171.33 mg/dL | LACTATE DEHYDROGENASE [1]: 241.67 u/L | LIPASE [1]: 9.5 u/L | PHOSPHORUS [1]: 12.25 mg/dL | POTASSIUM [1]: 6.33 MEQ/L | SODIUM [1]: 141.28 MEQ/L | TOTAL BILIRUBIN [1]: 0.15 mg/dL | TOTAL PROTEIN [1]: 5.98 G/DL | URIC ACID [1]: 1.63 mg/dL | ABSOLUTE BASOPHIL [2]: 0 CELLS/uL | ABSOLUTE EOSINOPHIL [2]: 148.67 CELLS/uL | ABSOLUTE LYMPHOCYTE [2]: 16020.5 CELLS/uL | ABSOLUTE MONOCYTE [2]: 29.17 CELLS/uL | ABSOLUTE SEGMENTED NEUTROPHIL [2]: 1468.33 CELLS/uL | BASOPHIL [2]: 0% | EOSINOPHIL [2]: 1% | ERYTHROCYTE COUNT [2]: 5.78 x10E6/uL | HEMATOCRIT [2]: 35.77% | HEMOGLOBIN [2]: 13.4 G/DL | LEUKOCYTE COUNT [2]: 17.67 x10E3/uL | LYMPHOCYTE [2]: 90.5% | MEAN CORPUSCULAR HEMOGLOBIN [2]: 23.22 pg | MEAN CORPUSCULAR HEMOGLOBIN CONCENTRATION [2]: 37.47 G/DL | MEAN CORPUSCULAR VOLUME [2]: 61.92 fL | MONOCYTE [2]: 0.17% | NEUTROPHIL [2]: 8.33% | NUCLEATED RED BLOOD CELLS [2]: 0.17 /100WBC | PLATELET COUNT [2]: 1255.5 x10E3/uL | ALANINE AMINOTRANSFERASE [2]: 46.5 u/L | ALBUMIN [2]: 4.38 G/DL | ALKALINE PHOSPHATASE [2]: 336 u/L | ASPARTATE AMINOTRANSFERASE [2]: 76.5 u/L | BLOOD UREA NITROGEN [2]: 20 mg/dL | CARBON DIOXIDE [2]: 27.5 mmol/L | CHLORIDE [2]: 101 MEQ/L | CHOLESTEROL [2]: 71.33 mg/dL | CREATINE PHOSPHOKINASE [2]: 231.83 u/L | CREATININE [2]: 0.37 mg/dL | GLUCOSE [2]: 168.83 mg/dL | LACTATE DEHYDROGENASE [2]: 174 u/L | LIPASE [2]: 8.67 u/L | PHOSPHORUS [2]: 11.48 mg/dL | POTASSIUM [2]: 6.82 MEQ/L | SODIUM [2]: 143.8 MEQ/L | TOTAL BILIRUBIN [2]: 0.2 mg/dL | TOTAL PROTEIN [2]: 5.98 G/DL | URIC ACID [2]: 1.83 mg/dL | ABSOLUTE BASOPHIL [3]: 0 CELLS/uL | ABSOLUTE EOSINOPHIL [3]: 455.67 CELLS/uL | ABSOLUTE LYMPHOCYTE [3]: 14286.67 CELLS/uL | ABSOLUTE MONOCYTE [3]: 45.33 CELLS/uL | ABSOLUTE SEGMENTED NEUTROPHIL [3]: 1912.33 CELLS/uL | BASOPHIL [3]: 0% | EOSINOPHIL [3]: 2.67% | ERYTHROCYTE COUNT [3]: 5.53 x10E6/uL | HEMATOCRIT [3]: 35.53% | HEMOGLOBIN [3]: 13.27 G/DL | LEUKOCYTE COUNT [3]: 16.7 x10E3/uL | LYMPHOCYTE [3]: 85.67% | MEAN CORPUSCULAR HEMOGLOBIN [3]: 24.03 pg | MEAN CORPUSCULAR HEMOGLOBIN CONCENTRATION [3]: 37.37 G/DL | MEAN CORPUSCULAR VOLUME [3]: 64.3 fL | MONOCYTE [3]: 0.33% | NEUTROPHIL [3]: 11.33% | NUCLEATED RED BLOOD CELLS [3]: 0 /100WBC | PLATELET COUNT [3]: 1310.33 x10E3/uL | ALANINE AMINOTRANSFERASE [3]: 52.67 u/L | ALBUMIN [3]: 4.33 G/DL | ALKALINE PHOSPHATASE [3]: 370.33 u/L | ASPARTATE AMINOTRANSFERASE [3]: 85.67 u/L | BLOOD UREA NITROGEN [3]: 16.33 mg/dL | CARBON DIOXIDE [3]: 27 mmol/L | CHLORIDE [3]: 101.33 MEQ/L | CHOLESTEROL [3]: 78.33 mg/dL | CREATINE PHOSPHOKINASE [3]: 300.67 u/L | CREATININE [3]: 0.22 mg/dL | GLUCOSE [3]: 154.33 mg/dL | LACTATE DEHYDROGENASE [3]: 406.33 u/L | LIPASE [3]: 9 u/L | PHOSPHORUS [3]: 11.9 mg/dL | POTASSIUM [3]: 6.59 MEQ/L | SODIUM [3]: 143 MEQ/L | TOTAL BILIRUBIN [3]: 0.2 mg/dL | TOTAL PROTEIN [3]: 6.03 G/DL | URIC ACID [3]: 2 mg/dL
